Assay results reported in patent US20240285589A1, “TREATMENT USING AN ANTIVIRAL COMPOUND AND NITAZOXANIDE” (priority 2021, published 2024).

Assays:
Format in all cases: in vivo, human
[1] = tested on: persistent Herpes 1 and Herpes 4 infections; experiment: Case Study 4: person with memory problems, dementia consistent with Alzheimer's disease; conditions: after six months
Description: A person presented for evaluation of memory problems. Cognitive testing was consistent with dementia. A SPECT functional brain scan was performed. The results were consistent with Alzheimer's disease. […] The patient was started on antiviral therapy with valacyclovir 1000 mg two times per day orally. The valacyclovir was stopped and famciclovir was started at 500 mg two times per day orally. After one month, the famciclovir was increased to 1000 mg two times per day orally. […] was added to their regimen at a dose of 500 mg two times per day orally. […] Family members were thrilled with the improvement.

[2] = tested on: persistent Herpes 4 and Herpes 6 infections; experiment: Case Study 5: person with severe fatigue
Description: An active person had struggled with depression and obsessive-compulsive disorder in the past, but these problems were well-controlled with medications. They actively engaged in daily exercising, including skiing, bicycle riding, and vigorous walking. Suddenly, they developed severe fatigue. […] The patient was started on valacyclovir at a dose of 1000 mg two times per day orally. […] Then they were switched to famciclovir, titrating from 500 mg two times per day to 1000 mg two times per day orally. […] Within two months, the patient noted less fatigue.

[3] = tested on: Epstein-Barr virus and Herpes 1 virus; experiment: Case Study 6: person with severe depression, IBS, brain fog, fatigue, headaches, SPECT; conditions: valacyclovir 1000 mg two times per day orally; after three months
Text: Scale illustrates levels of perfusion in a different manner from FIG. 1. The dark grey central portion of the scale illustrates statistically normal perfusion in a given area relative to a normative database. Areas of progressively lighter grey to white illustrate areas which are 2 standard deviation (SD), 3 SD, and 4 SD below the mean of the normative database, respectively.
A person presented with a history of depression since their teen years. They were severely depressed upon presentation (Quick Inventory of Depressive Symptomatology scale 26/27) and spent most of their time in their bedroom in the basement of their parent's house. They had withdrawn from college and had never held a full-time job. Their condition was complicated by irritable bowel syndrome, brain fog, pervasive fatigue, and headaches. […] The patient also underwent a functional brain scan (single photon emission computed tomography—SPECT). […] The patient was started on the antiviral valacyclovir at 1000 mg two times per day orally. […] NTZ was added at a dose of 500 mg two times per day orally. After one month, the dose of NTZ was increased to 1000 mg two times per day orally.

[4] = tested on: herpes 4 and 6 as persistent infections; experiment: Case Study 1: adult with CFS, anxiety and irritable bowel syndrome; conditions: valacyclovir 1000 mg two times per day orally, alone
Description: Antiviral therapy with valacyclovir at 1000 mg two times per day orally was begun. […] NTZ was added at 500 mg two times per day orally to the regimen.

[5] = tested on: persistent Herpes 4 and 6 infections; experiment: Case Study 2: adult with multiple symptoms of VIFD (CFS, fibromyalgia, pain)
Text: An adult presented with multiple symptoms of VIFD across multiple systems. They experienced fatigue, brain fog, and unrefreshing sleep consistent with CFS. They experienced muscle and joint pain with trigger point pain and exaggerated reactions to pain consistent with fibromyalgia. They experienced pelvic and vaginal pain, headaches, depression, anxiety, sore throat, painful lymph nodes, numbness, and generalized pain. The symptoms involved the central nervous system, the genitourinary system, the gastrointestinal system, the immune system, the musculoskeletal system and the peripheral nervous system. […] The dose of valacyclovir was increased to 2000 mg two times per day orally. […] NTZ was then added at 500 mg two times per day orally.

[6] = tested on: persistent Herpes 4 and 6 infections; experiment: Case Study 3: late-middle-aged person with Parkinson's disease symptoms and depression, perfusion SPECT; conditions: valacyclovir 1000 mg in the morning and 2000 mg at night orally; after three months
Text: FIGS. 1A-1B show perfusion SPECT scan from Case Study 3. […] Scale illustrates levels of perfusion with normal perfusion at the central light grey and decreased perfusion illustrated by progressively darker shades of grey.
A late-middle-aged person presented for evaluation of Parkinson's disease and depression. They had been diagnosed with Parkinson's disease by a neurologist based on clinical signs of tremor and bradykinesia. No neuroimaging had been done. […] A single-photon emission computed tomography (SPECT) brain perfusion scan and a dopamine transporter SPECT scan (DaTscan) were ordered. […] The patient was started on antiviral therapy with valacyclovir at 1000 mg two times per day orally. The dose was increased to 1000 mg orally in the morning and 2000 mg orally at night. […] A repeat perfusion SPECT brain scan was performed (FIG. 1B).

For CC(=O)OCC(CCn1cnc2cnc(N)nc21)COC(C)=O [famciclovir], the “memory function as reflected by scores on cognitive testing” value ([1]; famciclovir 500 mg then 1000 mg two times per day orally) was “modest improvement”, the daily memory function ([1]; famciclovir 1000 mg two times per day orally) was “struggled still with daily memory function” and the “symptoms of severe fatigue” value ([2]; famciclovir titrated from 500 mg to 1000 mg two times per day orally, after three months) was “no improvement”.

In the case of CC(C)[C@H](N)C(=O)OCCOCn1cnc2c(=O)[nH]c(N)nc21 [valacyclovir], the “symptoms of severe fatigue” value ([2]; valacyclovir 1000 mg bid orally, after four months increased to 2000 mg two times per day) is reported as “did not improve”, the clarity of thinking [3] is reported as “could think more clearly” and the depression [3] is reported as “somewhat less depressed”. The fatigue [3] was “somewhat less fatigued”, the improvement in symptoms [3] was “roughly 20%” and the “brain fog, anxiety, bowel movements” value [4] was “still struggled with brain fog, anxiety, and frequent bowel movements”. For the same compound, the fatigue [4] was “modest improvement in fatigue”, the “need to nap on a daily basis” value [4] was “no longer needed to nap on a daily basis” and the symptoms ([5]; valacyclovir 1000 mg two times per day orally, over three months) was “minor improvement”. The symptoms ([5]; valacyclovir increased to 2000 mg two times per day orally) was “slight additional benefit”, the depression symptoms [6] was “marked improvement” and the energy and motivation [6] was “improved energy and motivation”. For the same compound, the tremor and bradykinesia [6] was “continued to experience tremor and bradykinesia”.

In the case of CC(C)[C@H](N)C(=O)OCC(CO)OCn1cnc2c(=O)nc(N)[nH]c21 (some centres unmarked) [valganciclovir], the “symptoms of severe fatigue” value ([2]; valganciclovir titrated from 450 mg to 900 mg two times per day, after four months) is reported as “without improvement”.
